Legend:
HCT116 = test: SRB drug sensitivity, HCT116 parental cells; assay type: cell-based; details: Homo sapiens, HCT-116, 72 hours with agent
PC13 = test: SRB drug sensitivity, PC-13 parental cells; assay type: cell-based; details: Homo sapiens, 72 hours with agent
PC13/NR13 = test: SRB drug sensitivity, Compound-A-resistant PC-13/NR13; assay type: cell-based, human; details: for IC50: Homo sapiens, PC-13, PC13/NR13, SRB, 72 hours with agent; for RR: Relative Resistance: IC50 PC13/NR13 divided by IC50 PC13
HeLaS3 = test: SRB drug sensitivity, HeLaS3 (Compound-A-sensitive); assay type: cell-based; details: Homo sapiens, HeLa S3, 72 hours with agent
HeLa#7 = test: SRB drug sensitivity, spontaneously resistant HeLa#7; assay type: cell-based, human; details: for IC50: Homo sapiens, HeLa#7, SRB, 72 hours with agent; for RR: Relative Resistance: IC50 HeLa#7 divided by IC50 HeLaS3
LY = test: SRB drug sensitivity, LY parental fibroblasts; assay type: cell-based; details: Mus musculus, Fibroblast, 72 hours with agent
LY/NR1 = test: SRB drug sensitivity, Compound-A-resistant LY/NR1; assay type: cell-based, mouse; details: for IC50: Mus musculus, LY/NR1, SRB, 72 hours with agent; for RR: Relative Resistance: IC50 LY/NR1 divided by IC50 LY
Excerpt: A colony that grew under these conditions was isolated using a cloning ring (Asahi Techno Glass Corporation) and designated as LY/NR1.

LY/NR2 = test: SRB drug sensitivity, Compound-A-resistant LY/NR2; assay type: cell-based, mouse; details: for IC50: Mus musculus, LY/NR2, SRB, 72 hours with agent; for RR: Relative Resistance: IC50 LY/NR2 divided by IC50 LY
Excerpt: An emerging colony was isolated as described above and designated as LY/NR2.

PC-13/Vector = test: SRB drug sensitivity, PC-13 transfected with vector alone; assay type: cell-based; details: Homo sapiens, average ± standard error of three independent experiments
Procedure: (§1) Test cells in the logarithmic growth phase were dispensed into wells of 96-well plate at 1×10^3 cells/well. After subculture for 24 hours in a CO2 incubator, a serial diluted agent was added to each well. After further incubation for 72 hours, the cells were fixed with trichloroacetic acid (TCA) and the proteins in the cells were stained by 0.4% sulforhodamine B solution. The samples were eluted by 10 mM Tris-HCl for 1 hour, and each well was measured at 560 nm with a 450 nm reference, by a SPECTRAmax 250 plate reader (Molecular Devices Corp.).
(§2) PC-13 cells were transfected with the ABCG2 expression plasmids using Effectene Transfection Reagent (QIAGEN). The experiment was performed according to the attached procedural manual. As a control experiment, other PC-13 cells were transfected with vector alone without the ABCG2 sequence. The two experiments were conducted simultaneously. Two days after the transfection, the original media were replaced with selection media containing 0.2 mg/ml of Geneticin (GIBCO BRL). By culture for a long time under this condition, stable transfectant clones with the introduced plasmids were selected. Two weeks from the transfection, emerging colonies were picked and expression of ABCG2 in the cells was examined by Northern Blot analysis.

ABCG2 [1] = test: SRB drug sensitivity, PC-13 transfected with ABCG2 (clone 2); assay type: cell-based, human; details: human; PC-13/ABCG2-2; average ± standard error of three independent experiments
Procedure: as §1, §2

ABCG2 [2] = test: SRB drug sensitivity, PC-13 transfected with ABCG2 (clone 3); assay type: cell-based, human; details: human; PC-13/ABCG2-3; average ± standard error of three independent experiments
Procedure: as §1, §2

[3] = system: PC-13 cell lines with introduced ABCG2; test: SRB drug sensitivity, PC-13 cell lines with introduced ABCG2 (stated jointly); assay type: cell-based, human; details: PC-13 cell lines with introduced ABCG2, versus vector alone
Procedure: as §1, §2

HCT116/NR1 = test: SRB drug sensitivity, Compound-A-resistant HCT116/NR1; assay type: cell-based, human; details: for IC50: Homo sapiens, HCT-116, HCT116/NR1, SRB, 72 hours with agent; for RR: Relative Resistance: IC50 HCT116/NR1 divided by IC50 HCT116
Excerpt: An emerging colony was isolated and designated as HCT116/NR1.

PC-13/ABCG2-2 = test: SRB drug sensitivity, PC-13 transfected with ABCG2 (clone 2); assay type: cell-based, human; details: IC50 PC-13/ABCG2-2 divided by IC50 of vector cells
Procedure: as §1, §2

PC-13/ABCG2-3 = test: SRB drug sensitivity, PC-13 transfected with ABCG2 (clone 3); assay type: cell-based, human; details: IC50 PC-13/ABCG2-3 divided by IC50 of vector cells
Procedure: as §1, §2

MCF-7/T8 = test: SRB drug sensitivity, MCF-7 with introduced ABCG2-482T; assay type: cell-based, human; details: MCF-7/T8 (ABCG2-482T)
Procedure: (§3) The full length human ABCG2 cDNA of the present invention prepared in Example 5 was inserted into a plasmid for expression in mammalian cells, followed by transfection of human breast cancer cells, MCF-7 cells, with the ABCG2 expression plasmid using Effectene Transfection Reagent (QIAGEN). Likewise, human breast cancer cells, MCF-7 cells, were transfected with a plasmid including the ABCG2-482T cDNA prepared in Example 10. The experiments were carried out according to an attached procedural manual. As a control experiment, the MCF-7 cells were also transfected with vector alone. The three experiments were conducted simultaneously. Two days from the transfection, the original media were replaced with selective media containing 900 μg/ml of Geneticin (GIBCO BRL). By culture over a prolonged term under this condition, stable transfectant clones with introduced plasmid were selected. Two to three weeks from the transfection, emerging colonies were picked and the expression of ABCG2 in the cells was examined by Northern Blot analysis. Northern Blot analysis was performed as described in Example 4: 8 μg of total RNA prepared from each clone using RNeasy mini kit (QIAGEN) was separated on a formaldehyde denatured agarose gel, followed by analysis using the human ABCG2 cDNA fragment of the present invention as a probe.
(§4) The drug sensitivity of the stable transfectant clones which were established from MCF-7 cells with introduced ABCG2- or ABCG2-482T-expression plasmid, was measured using SRB method as described in Example 2 and the sensitivity of each transfectant to drugs was shown as a relative resistance to the cells with introduced vector alone (FIG. 6).

MCF-7/R7 = test: SRB drug sensitivity, MCF-7 with introduced ABCG2 of the present invention; assay type: cell-based, human; details: MCF-7/R7 (ABCG2 of the present invention), FIG. 6
Procedure: as §3, §4

SMILES	IC50 (HeLaS3) [nM]	IC50 (HeLa#7) [nM]	IC50 at 72 h (ABCG2 [1]) [nM]	IC50 at 72 h (ABCG2 [2]) [nM]	IC50 (HCT116/NR1) [nM]	IC50 (HCT116) [nM]	IC50 (PC13) [nM]	IC50 (PC13/NR13) [nM]	IC50 (LY) [nM]	IC50 (LY/NR1) [nM]	IC50 (LY/NR2) [nM]	IC50 (PC-13/Vector) [nM]	resistance of cells in which ABCG2 was forcedly expressed [3]	RR: Relative Resistance (HCT116/NR1)	RR: Relative Resistance (PC13/NR13)	RR: Relative Resistance (HeLa#7)	RR: Relative Resistance (LY/NR1)	RR: Relative Resistance (LY/NR2)	further results
CC[C@@]1(O)C(=O)OCc2c1cc1n(c2=O)Cc2cc3ccccc3nc2-1 [Camptothecin]	14	38	29 ± 5	52 ± 8	17	9.4	38	29	46	58	380	43 ± 11	did not display remarkable resistance	1.8	0.76	2.7	1.3	8.2	Rel. Res. (relative resistance) (PC-13/ABCG2-2): 0.67; Rel. Res. (relative resistance) (PC-13/ABCG2-3): 1.2
COc1cccc2c1C(=O)c1c(O)c3c(c(O)c1C2=O)C[C@@](O)(C(=O)CO)C[C@@H]3O[C@H]1C[C@H](N)[C@H](O)[C@H](C)O1 [Doxorubicin]	35	29	–	–	59	25	28	70	43	67	190	–	not resistant	2.3	2.5	0.81	1.6	4.5	relative resistance to the cells with introduced vector alone (MCF-7/T8; FIG. 6, listed as Adriamycin): 9.6 fold; relative resistance to the cells with introduced vector alone (MCF-7/T8; FIG. 6, listed as adriamycin): showed resistance; relative resistance to the cells with introduced vector alone (MCF-7/R7): no resistance
COc1cccc2c1C(=O)c1c(O)c3c(c(O)c1C2=O)C[C@@](O)(C(C)=O)C[C@@H]3O[C@H]1C[C@H](N)[C@H](O)[C@H](C)O1 [Daunorubicin]	–	–	–	–	–	–	–	–	–	–	–	–	–	–	–	–	–	–	relative resistance to the cells with introduced vector alone (MCF-7/T8; FIG. 6): 5.1 fold; relative resistance to the cells with introduced vector alone (MCF-7/R7): no resistance

Now from value to molecule, other results behind:

IC50 (HeLaS3) [nM]	IC50 (HeLa#7) [nM]	IC50 at 72 h (ABCG2 [1]) [nM]	IC50 at 72 h (ABCG2 [2]) [nM]	IC50 (HCT116/NR1) [nM]	SMILES	IC50 (HCT116) [nM]	IC50 (PC13) [nM]	IC50 (PC13/NR13) [nM]	IC50 (LY) [nM]	IC50 (LY/NR1) [nM]	IC50 (LY/NR2) [nM]	IC50 (PC-13/Vector) [nM]	resistance of cells in which ABCG2 was forcedly expressed [3]	RR: Relative Resistance (HCT116/NR1)	RR: Relative Resistance (PC13/NR13)	RR: Relative Resistance (HeLa#7)	RR: Relative Resistance (LY/NR1)	RR: Relative Resistance (LY/NR2)	further results
63	360	190 ± 50	96 ± 22	–	CC[C@@]1(O)C(=O)OCc2c1cc1n(c2=O)Cc2cc3c(CN(C)C)c(O)ccc3nc2-1 [Topotecan]	34	75	1100	69	250	2900	210 ± 40	did not display remarkable resistance	–	–	–	–	–	–
0.7	6.9	–	–	9.3	CC[C@]1(O)C[C@H]2CN(CCc3c([nH]c4ccccc34)[C@@](C(=O)OC)(c3cc4c(cc3OC)N(C=O)[C@H]3[C@@](O)(C(=O)OC)[C@H](OC(C)=O)[C@]5(CC)C=CCN6CC[C@]43[C@@H]65)C2)C1 [Vincristine]	2	13	7	15	11	25	–	–	4.7	0.56	9.9	0.77	1.7	–
1	4.2	–	–	2.1	CC(=O)O[C@H]1C(=O)[C@@]2(C)[C@H]([C@H](OC(=O)c3ccccc3)[C@]3(O)C[C@H](OC(=O)[C@H](O)[C@@H](NC(=O)c4ccccc4)c4ccccc4)C(C)=C1C3(C)C)[C@]1(OC(C)=O)CO[C@@H]1C[C@@H]2O [Paclitaxel]	1.1	2	1.8	41	57	81	–	–	1.9	0.92	4.2	1.4	2.0	–
1200	930	460 ± 75	1100 ± 330	3400	COc1cc([C@@H]2c3cc4c(cc3[C@@H](O[C@@H]3O[C@@H]5CO[C@@H](C)O[C@H]5[C@H](O)[C@H]3O)[C@H]3COC(=O)[C@H]23)OCO4)cc(OC)c1O [Etoposide]	1100	1200	3000	280	520	2000	1000 ± 290	did not display remarkable resistance	3.1	2.5	0.79	2.1	4.7	Rel. Res. (relative resistance) (PC-13/ABCG2-2): 0.46; Rel. Res. (relative resistance) (PC-13/ABCG2-3): 1.1
